This is an account of results in ChEMBL document CHEMBL4190372, “Discovery of a Novel Oral Glucocorticoid Receptor Modulator (AZD9567) with Improved Side Effect Profile” (J Med Chem, 2018).

One may read the IC50 as the concentration needed to halve the response being measured. The term EC50 denotes the concentration that produces a half-maximal response. By clearance is commonly meant the rate of elimination divided by the concentration. Usually Tmax stands for the time from dosing to the highest level.

The target in data set [1] is T1, Progesterone receptor (Homo sapiens, UniProt P06401).
T1 sequence (P06401 whole entry): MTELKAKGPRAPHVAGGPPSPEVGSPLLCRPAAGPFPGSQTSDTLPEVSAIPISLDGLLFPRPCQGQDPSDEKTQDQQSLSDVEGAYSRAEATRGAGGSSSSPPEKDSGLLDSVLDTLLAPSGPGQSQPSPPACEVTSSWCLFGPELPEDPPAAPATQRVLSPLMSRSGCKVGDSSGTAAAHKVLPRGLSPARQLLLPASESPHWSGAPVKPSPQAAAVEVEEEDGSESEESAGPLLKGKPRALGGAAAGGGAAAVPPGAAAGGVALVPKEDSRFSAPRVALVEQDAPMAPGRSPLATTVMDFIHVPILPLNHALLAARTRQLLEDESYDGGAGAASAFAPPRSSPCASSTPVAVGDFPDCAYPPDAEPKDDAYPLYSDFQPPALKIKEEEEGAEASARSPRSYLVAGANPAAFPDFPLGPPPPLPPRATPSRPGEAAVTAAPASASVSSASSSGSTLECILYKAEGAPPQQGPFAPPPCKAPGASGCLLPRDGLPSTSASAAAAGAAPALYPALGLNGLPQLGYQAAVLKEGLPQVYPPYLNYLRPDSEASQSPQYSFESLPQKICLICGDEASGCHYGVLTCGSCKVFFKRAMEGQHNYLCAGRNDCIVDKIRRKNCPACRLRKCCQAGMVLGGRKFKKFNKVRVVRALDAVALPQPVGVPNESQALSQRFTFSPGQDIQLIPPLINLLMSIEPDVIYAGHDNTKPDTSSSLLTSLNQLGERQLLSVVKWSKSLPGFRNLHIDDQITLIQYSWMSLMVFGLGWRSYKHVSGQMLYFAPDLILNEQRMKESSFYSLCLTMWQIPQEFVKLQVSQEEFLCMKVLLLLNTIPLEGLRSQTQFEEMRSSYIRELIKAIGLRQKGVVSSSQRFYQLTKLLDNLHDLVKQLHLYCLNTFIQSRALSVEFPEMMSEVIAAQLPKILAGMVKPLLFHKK
Description: Displacement of [3H]progesterone from progesterone receptor in human T47D cells after 1200 mins by scintillation counting method. In kind it is cell-based.

For data set [2], the target named is T2, Glucocorticoid receptor (Homo sapiens, UniProt P04150).
T2 sequence (P04150 whole entry): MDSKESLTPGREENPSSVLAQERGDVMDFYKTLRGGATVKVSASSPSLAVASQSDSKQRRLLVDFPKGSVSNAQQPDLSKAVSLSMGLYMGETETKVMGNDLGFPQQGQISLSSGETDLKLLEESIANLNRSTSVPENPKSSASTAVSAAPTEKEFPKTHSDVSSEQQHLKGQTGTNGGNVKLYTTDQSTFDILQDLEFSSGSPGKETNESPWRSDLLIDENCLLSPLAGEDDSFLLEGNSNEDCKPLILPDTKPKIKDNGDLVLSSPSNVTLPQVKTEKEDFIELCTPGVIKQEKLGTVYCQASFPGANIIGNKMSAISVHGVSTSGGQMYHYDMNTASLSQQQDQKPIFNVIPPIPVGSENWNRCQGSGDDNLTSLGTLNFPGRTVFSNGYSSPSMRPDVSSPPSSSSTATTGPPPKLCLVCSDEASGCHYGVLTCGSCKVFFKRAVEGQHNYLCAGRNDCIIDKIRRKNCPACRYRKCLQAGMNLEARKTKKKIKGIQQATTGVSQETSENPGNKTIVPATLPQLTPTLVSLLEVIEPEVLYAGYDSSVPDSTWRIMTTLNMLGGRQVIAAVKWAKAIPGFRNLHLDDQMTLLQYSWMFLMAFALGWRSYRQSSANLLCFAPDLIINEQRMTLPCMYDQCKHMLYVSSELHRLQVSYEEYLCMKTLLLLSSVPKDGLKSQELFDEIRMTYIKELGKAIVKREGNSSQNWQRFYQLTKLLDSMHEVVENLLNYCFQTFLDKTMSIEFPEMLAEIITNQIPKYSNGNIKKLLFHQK
As to the kind of experiment: Displacement of fluormone RED from human full length glucocorticoid receptor after 4 hrs by fluorescence polarization assay. (In general: Polarisation of emitted light reports the rotation of a fluorescent probe.)

Data set [3] deals with Rattus norvegicus. Description: Antiinflammatory activity in streptococcal cell wall reactivation Lewis rat model assessed as reduction of joint swelling at 0.3 mg/kg administered once daily for 8 days by oral gavage starting 1 day prior to streptococcal cell wall challenge measured during 6 days post challenge relative to control. In kind it is functional. The arrangement: scale not given: the % may be the effect or the level left.

In data set [4] the test system is Rattus norvegicus. As to the kind of experiment: Dose normalized AUC (0 to infinity) in Han-Wistar rat at 2.1 mg/kg, po. The format is ADME, organism-based. The conditions noted are these: in vivo.
In data set [5] the target is T2, Glucocorticoid receptor.
Description: Transactivation activity at glucocorticoid receptor (unknown origin) expressed in human ChaGoK1 cells incubated for 24 hrs by beta-galactosidase reporter gene assay
Data set [6] has as its target T2, Glucocorticoid receptor. Description: Transactivation of GR in cryopreserved human primary hepatocytes assessed as upregulation of TAT mRNA expression level up to 1 uM after 18 hrs by RT-qPCR analysis. In general terms: Quantitative PCR measures a nucleic acid by following its amplification.
Data set [7] is described as follows: Clearance in Han-Wistar rat at 0.8 mg/kg, iv. The format is ADME, organism-based. The conditions noted are these: in vivo.
For data set [8], the target named is Estrogen receptor beta (Homo sapiens, UniProt Q92731). Description: Binding affinity to human ERbeta expressed in Sf9 cells by fluoligand binding-based fluorescence polarization method.
Estrogen receptor beta, sequence (Q92731 whole entry): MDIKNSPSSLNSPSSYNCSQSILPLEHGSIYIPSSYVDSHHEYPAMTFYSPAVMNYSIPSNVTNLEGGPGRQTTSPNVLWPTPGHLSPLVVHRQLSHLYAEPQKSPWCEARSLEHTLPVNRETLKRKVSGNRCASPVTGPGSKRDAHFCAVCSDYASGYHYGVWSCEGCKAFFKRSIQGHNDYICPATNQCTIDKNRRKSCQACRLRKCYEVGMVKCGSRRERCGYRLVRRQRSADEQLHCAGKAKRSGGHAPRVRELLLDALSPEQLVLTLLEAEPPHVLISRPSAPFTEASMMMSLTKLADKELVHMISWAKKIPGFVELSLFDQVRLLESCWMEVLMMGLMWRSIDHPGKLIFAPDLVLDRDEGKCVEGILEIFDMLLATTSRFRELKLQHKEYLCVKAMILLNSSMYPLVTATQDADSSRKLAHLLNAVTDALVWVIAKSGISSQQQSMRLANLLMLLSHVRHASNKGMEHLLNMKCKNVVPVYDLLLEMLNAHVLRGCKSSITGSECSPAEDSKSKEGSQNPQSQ
The nature of data set [9]: Tmax in Han-Wistar rat at 2.1 mg/kg, po. The format is ADME, organism-based. As to conditions: in vivo; call rule not given here.
Data set [10] has as its system Rattus norvegicus. Description: Antiinflammatory activity in streptococcal cell wall reactivation Lewis rat model assessed as reduction of joint swelling at 0.1 mg/kg administered once daily for 8 days by oral gavage starting 1 day prior to streptococcal cell wall challenge measured during 6 days post challenge relative to control. The format is functional. Also noted: scale not given: the % may be the effect or the level left.

Data set [11] addresses T3, Glucocorticoid receptor (Rattus norvegicus, UniProt P06536).
T3 sequence (P06536 whole entry): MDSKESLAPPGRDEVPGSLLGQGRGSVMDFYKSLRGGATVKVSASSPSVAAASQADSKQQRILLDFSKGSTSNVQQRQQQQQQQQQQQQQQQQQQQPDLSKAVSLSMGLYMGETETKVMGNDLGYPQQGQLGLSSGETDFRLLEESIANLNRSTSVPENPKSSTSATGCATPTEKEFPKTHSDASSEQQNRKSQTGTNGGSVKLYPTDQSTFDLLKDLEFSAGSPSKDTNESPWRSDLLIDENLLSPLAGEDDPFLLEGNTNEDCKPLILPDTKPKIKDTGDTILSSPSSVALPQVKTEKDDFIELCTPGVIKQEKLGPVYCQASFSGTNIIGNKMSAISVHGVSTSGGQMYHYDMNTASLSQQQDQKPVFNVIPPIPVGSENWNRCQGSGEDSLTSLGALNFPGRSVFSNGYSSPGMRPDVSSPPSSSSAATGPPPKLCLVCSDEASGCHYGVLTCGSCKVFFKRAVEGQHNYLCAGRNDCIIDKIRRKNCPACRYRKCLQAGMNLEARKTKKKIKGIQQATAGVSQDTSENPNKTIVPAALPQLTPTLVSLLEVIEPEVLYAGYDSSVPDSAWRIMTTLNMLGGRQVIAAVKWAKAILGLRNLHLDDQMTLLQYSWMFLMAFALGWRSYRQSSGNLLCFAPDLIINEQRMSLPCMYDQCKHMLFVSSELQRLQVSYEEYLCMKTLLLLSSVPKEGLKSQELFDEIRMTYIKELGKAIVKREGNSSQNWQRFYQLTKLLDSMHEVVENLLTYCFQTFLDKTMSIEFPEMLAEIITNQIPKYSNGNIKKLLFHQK
Description: Modulation of glucocorticoid receptor in rat plasma.

Turning to `CC(C)[C@H](NC(=O)C(C)(F)F)[C@H](Oc1ccc2c(cnn2-c2ccc(=O)n(C)c2)c1)c1ccccc1` [MIZACORAT], the IC50 in [1] is 5.3 µM; in data set [2], 3.8 nM; in data set [8], > 100 µM; in [11], 30 nM. The Activity is listed as 66% in data set [3], “Not Active” in data set [6] and 42% in data set [10]. The molecule further gave an AUC/dose in data set [4] of 5.2 µM·h. Moreover, in [5], the EC50 was found to be 11 nM. This molecule had a clearance in [7] of 4.5 mL/min/kg. The Tmax in [9] amounted to 2 h.
